These results are taken from patent US8778974B2, “Trisubstituted 1,2,4 triazoles” (Janssen Pharmaceutica NV, priority 2008, dated 2014).

Where only a bound is given, the exact number is not on record here.

Data set [1] deals with T1, hα7-wt nAChR-expressing GH4Cl cells (Homo sapiens, UniProt P36544).
T1 construct: expressed in transfected cells
As to the kind of experiment: Patch-clamp current recording (whole-cell), potentiation of choline 1 mM response, PAM type. The data set is classed as cell-based. Further details: key to Pam type: Type 0 compounds minimally enhance the effect size of the current elicited by 1 mM choline.; Type 1 compounds enhance the effect size of the current elicited by 1 mM choline but minimally alter the kinetics of the receptor.; Type 2 compounds enhance the effect size of the current elicited by 1 mM choline while reducing the rate and/or the extent of desensitization.; Type 3 compounds enhance the effect size of the current elicited by 1 mM choline. When tested at higher concentrations up to 10 μM they completely inhibit desensitization, in particular a 1 mM choline application of 250 milliseconds.; Type 4 compounds allow for an initial desensitization of the receptor followed by a re-opening of the receptor during agonist application. To be noted: for EC50: according to Ex. D.2, "<5" = no top plateau reached at maximal concentration, read-out: Potency (pEC50) (converted); for Pam type: patch-clamp current recording, 1 mM choline. The protocol: The compounds of the present invention are classified as type 1-4, based on qualitative kinetic properties, as determined by whole-cell voltage-clamp recordings. This classification is based on the effect of an α7 PAM compound, as described hereinbefore, on the signal elicited by an agonist application. In particular, said agonist is choline at a concentration of 1 mM. In a preferred experimental setting, said α7 PAM compound and choline are simultaneously applied to the cell, as described hereinafter. Desensitization is defined as the closure of the receptor upon activation during the application of the agonist in whole-cell voltage-clamp electrophysiology measurements seen as the reduction of the […] current after initial activation by the agonist.
The definition of the PAM types 1-4 is described hereinafter: • Type 0 compounds minimally enhance the effect size of the current elicited by 1 mM choline. • Type 1 compounds enhance the effect size of the current elicited by 1 mM choline but minimally alter the kinetics of the receptor. In particular, the rate and the extent of desensitization, elicited by the agonist, is not affected. The compound-modulated response to 1 mM choline, therefore, is a close to linear scaling of the 1 mM choline response in absence of the α7 PAM compound. • Type 2 compounds enhance the effect size of the current elicited by 1 mM choline while reducing the rate and/or the extent of desensitization. • Type 3 compounds enhance the effect size of the current elicited by 1 mM choline. […] At low-potency concentrations of the α7 PAM compound, the agonist-induced activation, which is followed by desensitization, can still be separated from the compound-induced re-opening as an initial inward current-maximum. At higher potency concentrations of the α7 PAM compound, the re-opening occurs faster than the closure due to desensitization so that the initial current-maximum disappears.
Patch-clamp Current Recording
Patch-clamp recording from mammalian cells has provided a powerful means of assessing the function of membrane-bound proteins thought to be subunits of ligand-gated ion channels. Activation of such proteins by endogenous or exogenous ligands cause opening of a pore associated with the receptor through which ions flow down their electrochemical gradient. In the case of the hα7-wt nAChR-expressing GH4Cl recombinant cell line the preferential permeability to calcium of this receptor means that calcium flows into the cell upon activation by ACh, choline and other nicotinic ligands giving rise to a calcium current. Since this receptor rapidly desensitizes in the presence of agonist it is important an application system is used which is capable of very rapid switching of solutions (<100 ms) to prevent partial or full desensitisation of receptor responses coincident with the time of agonist application. Consequently, a second convenient technique to assess the enhancement of nicotinic efficacy is patch-clamp recording from hα7-wt nAChR-expressing GH4Cl cells coupled with a rapid-application system.
• a) Assay buffers • The external recording solution consisted of 152 mM NaCl, 5 mM KCl, 1 mM MgCl2, 1 mM Calcium, 10 mM HEPES; pH 7.3. The internal recording solution consisted of 140 mM CsCl, 10 mM HEPES, 10 mM EGTA, 1 mM MgCl2, pH 7.3. • b) Patch-clamp recording was carried out using a Patch-clamp amplifier (Multiclamp 700A, Axon Instruments, Calif., USA). hα7-wt nAChR-expressing GH4Cl cells were patch-clamp in the whole cell configuration (Hamill et al, 1981) with a borosilicate glass electrode of 1.5-3 MΩ tip resistance when filled with the internal recording solution. Recordings were made on cells with membrane resistance >500 MΩ and more preferably 1GΩ and series resistance <15 MΩ with at least 60% series resistance compensation. […]

T1 sequence (P36544 23-502): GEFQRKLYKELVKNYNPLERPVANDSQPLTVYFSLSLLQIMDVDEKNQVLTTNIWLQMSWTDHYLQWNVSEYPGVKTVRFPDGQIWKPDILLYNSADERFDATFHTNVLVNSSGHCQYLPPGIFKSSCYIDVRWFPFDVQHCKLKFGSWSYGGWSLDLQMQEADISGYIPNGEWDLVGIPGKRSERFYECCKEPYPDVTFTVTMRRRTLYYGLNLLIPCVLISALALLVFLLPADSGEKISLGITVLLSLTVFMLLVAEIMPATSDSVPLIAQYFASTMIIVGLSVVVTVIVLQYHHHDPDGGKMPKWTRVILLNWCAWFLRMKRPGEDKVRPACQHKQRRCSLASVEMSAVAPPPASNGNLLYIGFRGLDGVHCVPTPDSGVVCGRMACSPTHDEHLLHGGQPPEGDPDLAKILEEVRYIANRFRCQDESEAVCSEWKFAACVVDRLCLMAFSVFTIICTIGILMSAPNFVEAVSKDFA

By melting point is commonly meant the temperature of the solid-liquid transition. For `COc1cccc(-n2nc(Nc3ccc(F)c(C(F)(F)F)c3)nc2CCC(=O)N(C)C)c1` [E61], the melting point stood at 173.6 °C. In addition, in data set [1], the EC50 was 85.1 nM.

`Cc1cc(-n2nc(Nc3ccc4c(c3)OC(F)(F)O4)nc2CC(=O)NC2CCC2)cc(C)n1` [E179]: the melting point was 291.3 °C. Further, in data set [1], the EC50 was 97.7 nM and the Pam type is 1.

As for `Cc1cc(-n2nc(Nc3cccc(Cl)c3F)nc2CC(=O)NC2CC2)cc(C)n1` [E150], the melting point was 248.8 °C. In addition, in data set [1], the EC50 was 417 nM and the Pam type is 2.

Consider `CC[C@H](O)Cc1nc(Nc2ccc(F)c(F)c2)nn1-c1cccc(OC)c1` [E149], for which the melting point is 144.1 °C. Further, the EC50 in data set [1] was 1380 nM.

In the case of `COc1ccc(-n2nc(Nc3cc(OC)cc(C(F)(F)F)c3)nc2C[C@H](C)O)cc1` [E146], the melting point stood at 135.4 °C. Besides, the EC50 in data set [1] was around 363 nM.

`OCCCc1nc(Nc2ccc(F)c(C(F)(F)F)c2)nn1-c1ccncc1Cl` [E14] had a melting point of 152.9 °C. The EC50 in data set [1] is 3980 nM.

For `COCCc1nc(Nc2ccc(F)c(C(F)(F)F)c2)nn1-c1ccnc(C)c1` [E13], the melting point is 170.4 °C. In data set [1], the EC50 is 240 nM and the Pam type amounted to 0.

In turn, `COCCCc1nc(Nc2ccc(F)c(C(F)(F)F)c2)nn1-c1ccncc1Cl` [E12, 1-(3-Chloro-4-pyridinyl)-N-[4-fluoro-3-(trifluoromethyl)phenyl]-5-(3-methoxypropyl)-1H-1,2,4-triazol-3-amine] registered a melting point of 105.3 °C. The EC50 in data set [1] is 2240 nM.

In the case of `CC[C@@H](O)Cc1nc(Nc2ccc(F)c(F)c2)nn1-c1ccnc(C)c1` [E134], the melting point stood at 175.8 °C. In data set [1], the EC50 is 1050 nM and the Pam type worked out at 2.

`COc1ccc(-n2nc(Nc3ccc(F)c(C(F)(F)F)c3)nc2C[C@H](C)O)cc1` [E22] came in with a melting point of 188.7 °C. In data set [1], the EC50 was 851 nM and the Pam type is 0.

Compound `Cc1cc(-n2nc(Nc3ccc(F)c(F)c3F)nc2C[C@H](C)O)ccn1` [E277] had a melting point of 131.4 °C. In data set [1], the EC50 is 6310 nM.

Regarding `CN(C)C(=O)CCc1nc(Nc2ccc(F)c(C(F)(F)F)c2)nn1-c1ccncc1Cl` [E74], the melting point was 181.7 °C. Besides, in data set [1], the EC50 is 72.4 nM and the Pam type is 4.

`Cc1cc(-n2nc(Nc3ccc(F)c(F)c3)nc2CC(=O)NC2CC2)cc(C)n1` [E168] yielded a melting point of 279.3 °C. For the same compound, in data set [1], the EC50 was 513 nM and the Pam type worked out at 2.

`CN(C)C(=O)CCc1nc(Nc2ccc3c(c2)OC(F)(F)O3)nn1-c1cccnc1Cl` [E118] registered a melting point of 195.8 °C. In addition, the EC50 in data set [1] was 692 nM.

In the case of `CC[C@H](O)Cc1nc(Nc2cccc(Cl)c2)nn1-c1cc(C)nc(C)c1` [E129], the melting point worked out at 154.6 °C. Further, in data set [1], the EC50 was 245 nM and the Pam type was determined as 2.

`CCNC(=O)Cc1nc(Nc2cccc(C(F)(F)F)c2)nn1-c1cc(C)nc(C)c1` [E175] yielded a melting point of 283.6 °C. Besides, in data set [1], the EC50 is 550 nM and the Pam type is on record as 4.

`CCc1cc(-n2nc(Nc3cc(OC)cc(C(F)(F)F)c3)nc2C[C@H](C)O)ccn1` [E133] showed a melting point of 156.2 °C. In data set [1], the EC50 is 363 nM and the Pam type is reported as 4.

The compound `Cc1cc(-n2nc(Nc3cccc(C(F)(F)F)c3F)nc2CC(=O)NC2CC2)cc(C)n1` [E257, N-Cyclopropyl-1-(2,6-dimethyl-4-pyridinyl)-3-[[2-fluoro-3-(trifluoromethyl)phenyl]amino]-1H-1,2,4-triazole-5-acetamide] showed a melting point of 244.4 °C.

In turn, `CCc1cc(-n2nc(Nc3ccc(F)c(F)c3)nc2C[C@H](C)O)ccn1` [E131] gave a melting point of 168 °C. In data set [1], the EC50 is 1380 nM and the Pam type came to 2.

As for `CC[C@H](O)Cc1nc(Nc2cccc(Cl)c2)nn1-c1ccc(C)nc1` [E196], the melting point was determined as 110.4 °C. Moreover, in data set [1], the EC50 was 912 nM and the Pam type stood at 2.

`Cc1cc(-n2nc(Nc3ccc(F)c(C(F)(F)F)c3)nc2C[C@@H](C)O)cc(C)n1` [E199] yielded a melting point of 224.4 °C. In data set [1], the EC50 is 1070 nM and the Pam type was 2.

`Cc1cc(-n2nc(Nc3ccc(F)c(C(F)(F)F)c3)nc2CC(C)O)ccn1` (stereo not drawn) [E10, 3-[[4-Fluoro-3-(trifluoromethyl)phenyl]amino]-alpha-methyl-1-(2-methyl-4-pyridinyl)-, (alphaS)-1H-1,2,4-triazole-5-ethanol] registered a melting point of 192.7 °C. In data set [1], the EC50 was 1050 nM and the Pam type is 2.

`CN(C)C(=O)CCc1nc(Nc2ccc(F)c(F)c2)nn1-c1ccc(Cl)cc1` [E59] displayed a melting point of 145.1 °C. In data set [1], the EC50 is 245 nM and the Pam type is 4.

The compound `CC[C@H](O)Cc1nc(Nc2cc(F)c(F)c(F)c2)nn1-c1cc(C)nc(C)c1` [E188, (alphaS)-1-(2,6-dimethyl-4-pyridinyl)-alpha-ethyl-3-[(3,4,5-trifluorophenyl)amino]-1H-1,2,4-triazole-5-ethanol] returned a melting point of 176.6 °C. Besides, in data set [1], the EC50 is 224 nM and the Pam type was 2.

Consider `CC[C@H](O)Cc1nc(Nc2cc(Cl)cc(OC)c2)nn1-c1cc(C)nc(C)c1` [E205, (alphaS)-3-[(3-chloro-5-methoxyphenyl)amino]-1-(2,6-dimethyl-4-pyridinyl)-alpha-ethyl-1H-1,2,4-triazole-5-ethanol], for which, in data set [1], the EC50 is 155 nM and the Pam type was 2.

In the case of `CNC(=O)CCc1nc(Nc2ccc(F)c(F)c2)nn1-c1cccnc1` [E48], the EC50 in data set [1] was above 10000 nM.

As for `COc1ccc(-n2nc(Nc3ccc(F)c(F)c3)nc2CCC(=O)N(C)C)cc1OC` [E64], in data set [1], the EC50 is 525 nM and the Pam type is recorded as 4.

With `COc1ccc(-n2nc(Nc3ccc(F)c(F)c3)nc2CCC(=O)N(C)C)cc1` [E63], in data set [1], the EC50 was 60.3 nM and the Pam type amounted to 4.

With `CC[C@H](O)Cc1nc(Nc2cc(F)cc(OC)c2)nn1-c1cc(C)nc(C)c1` [E190, (alphaS)-1-(2,6-dimethyl-4-pyridinyl)-alpha-ethyl-3-[(3-fluoro-5-methoxyphenyl)amino]-1H-1,2,4-triazole-5-ethanol], in data set [1], the EC50 is 398 nM and the Pam type was determined as 2.

For `COc1ccc(-n2nc(Nc3cc(F)c(F)c(Br)c3)nc2CCC(=O)N(C)C)cc1` [E155], in data set [1], the EC50 was 28.8 nM and the Pam type is reported as 1.

Turning to `Cc1cc(-n2nc(Nc3cccc(Cl)c3F)nc2CC(=O)NCC2CC2)cc(C)n1` [E154], in data set [1], the EC50 was 219 nM and the Pam type worked out at 2.

In the case of `COc1ccc(-n2nc(Nc3ccc(F)c(C(F)(F)F)c3)nc2CCC(=O)N(C)C)cc1OC` [E65], in data set [1], the EC50 was 70.8 nM and the Pam type stood at 4.
